Results from patent US10316017B2, “COT modulators and methods of use thereof” (Gilead Sciences, Inc., priority 2015, dated 2019).
Read-outs that look alike come from different tables or passages of the source.

Tests used:
[1] = test system: TNFα production in LPS-stimulated human monocytes; experiment: Cot Monocyte TNFα Cell Based Assay; details: Homo sapiens, Monocyte, read-out: EC50 TNF
Method in brief: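 Percent-of-control values derive from TR-FRET ratios of TNFα in spun-down media, referenced to unstimulated and LPS-stimulated wells. Exposure: 1 h compound preincubation, then 50 pg/ml LPS for 4 h, both at 37 °C, with 0.5% final DMSO.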

[2] = target: T1, human Cot catalytic domain (30-397 amino acids) (Homo sapiens, UniProt P41279); experiment: High Throughput Cot Biochemical Assay (KinEASE TR-FRET); details: Cot KinEASE TR-FRET (HTRF) biochemical assay, 400 μM ATP; read-out: IC50 HTRF
T1 construct: Purified recombinant human Cot catalytic domain (30-397 amino acids) was purchased from Cama Biosciences; purchased Cama Biosciences (so in the source)
T1 sequence (P41279 30-397): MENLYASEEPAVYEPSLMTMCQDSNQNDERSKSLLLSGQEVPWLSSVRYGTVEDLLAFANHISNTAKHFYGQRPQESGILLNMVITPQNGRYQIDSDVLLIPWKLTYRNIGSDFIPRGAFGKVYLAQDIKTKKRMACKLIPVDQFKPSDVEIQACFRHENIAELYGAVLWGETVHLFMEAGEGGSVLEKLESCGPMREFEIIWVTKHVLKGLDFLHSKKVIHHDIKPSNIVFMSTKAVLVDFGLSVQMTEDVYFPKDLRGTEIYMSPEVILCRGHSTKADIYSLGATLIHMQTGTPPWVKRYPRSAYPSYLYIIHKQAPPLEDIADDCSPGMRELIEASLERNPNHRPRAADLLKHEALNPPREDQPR
Method in brief: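 Phosphorylation of 1 μM XL665-STK3 peptide by 5 nM Cot catalytic domain was measured by time-resolved FRET using a europium […] antibody. ATP was 400 μM; buffer was 10 mM MOPS pH 7.0 with Mg2+ and DTT.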

[3] = TNFα in LPS-stimulated human monocytes

| Structure (SMILES) | EC50 [1, 3] [nM] | IC50 [2] [nM] | EC50 [1] [nM] |
| --- | --- | --- | --- |
| [2H][C@](Nc1cc(Cl)c2ncc(C#N)c(NC3(C)CCC3)c2c1)(c1ccc(F)cc1)c1cn(C2CC2)nn1 [Example 219, (S)-8-chloro-6-(((1-cyclopropyl-1H-1,2,3-triazol-4-yl)(4-fluorophenyl)methyl-d)amino)-4-((1-methylcyclobutyl)amino)quinoline-3-carbonitrile] | 4930 | 534 |  |
| [2H][C@](Nc1cc(C)c2ncc(C#N)c(N[C@H](CC)c3ccccc3)c2c1)(c1ccc(F)cc1)c1cn(C2CC2)nn1 [Example 221, 6-(((S)-(1-cyclopropyl-1H-1,2,3-triazol-4-yl)(4-fluorophenyl)methyl-d)amino)-8-methyl-4-(((R)-1-phenylpropyl)amino)quinoline-3-carbonitrile] | 2520 | 244 |  |
| [2H][C@](Nc1cc(Cl)c2ncc(C#N)c(NCC(C)(C)COC)c2c1)(c1ccc(F)cc1)c1cn(C2CC2)nn1 [Example 225, (S)-8-chloro-6-(((1-cyclopropyl-1H-1,2,3-triazol-4-yl)(4-fluorophenyl)methyl-d)amino)-4-((3-methoxy-2,2-dimethylpropyl)amino) quinoline-3-carbonitrile] | 800 | 38 |  |
| [2H][C@](Nc1cc(Cl)c2ncc(C#N)c(NC[C@@H](C)c3ccccc3)c2c1)(c1ccc(F)cc1)c1cn(C2CC2)nn1 [Example 226, 8-chloro-6-(((S)-(1-cyclopropyl-1H-1,2,3-triazol-4-yl)(4-fluorophenyl)methyl-d)amino)-4-(((S)-2-phenylpropyl)amino) quinoline-3-carbonitrile] | 606 | 16 |  |
| [2H][C@@](Nc1cc(Cl)c2ncc(C#N)c(N[C@@H]3CCCC[C@@H]3NC(=O)OC(C)(C)C)c2c1)(c1ccc(F)cc1)c1cn(C2CC2)nn1 [Example 229, tert-butyl ((1S,2R)-2-((8-chloro-3-cyano-6-(((S)-(1-cyclopropyl-1H-1,2,3-triazo1-4-yl)(4-fluorophenyl)methyl-d)amino)quinolin-4-yl)amino)cyclohexyl) carbamate] | > 10000 | 2610 |  |
| [2H][C@](Nc1cc(Cl)c2ncc(C#N)c(N[C@H]3CCCC[C@H]3N)c2c1)(c1ccc(F)cc1)c1cn(C2CC2)nn1 [Example 230, 4-(((1S,2R)-2-aminocyclohexyl)amino)-8-chloro-6-(((S)-(1-cyclopropyl-1H-1,2,3-triazol-4-yl)(4-fluorophenyl)methyl-d)amino)quinoline-3-carbonitrile] | > 10000 | 337 |  |
| [2H][C@](Nc1cc(C2CC2)c2ncc(C#N)c(NCC(C)(C)C)c2c1)(c1ccc(F)cc1)c1cn(C2CC2)nn1 [Example 232, (S)-8-cyclopropyl-6-(((1-cyclopropyl-1H-1,2,3-triazol-4-yl)(4-fluorophenyl)methyl-d)amino)-4-(neopentylamino)quinoline-3-carbonitrile] | 2440 | 215 |  |
| [2H][C@](Nc1cc(Cl)c2ncc(C#N)c(NCC(C)(C)C)c2c1)(c1cccc(C#N)c1)c1cn(C(C)(C)C)nn1 [Example 233, (S)-6-(((1-(tert-butyl)-1H-1,2,3-triazol-4-yl)(3-cyanophenyl)methyl-d)amino)-8-chloro-4-(neopentylamino)quinoline-3-carbonitrile] | 259 | 5 |  |
| [2H][C@](Nc1cc(Cl)c2ncc(C#N)c(N[C@@H]3CCCC[C@H]3CO)c2c1)(c1ccc(F)cc1)c1cn(C2CC2)nn1 [Example 235, 8-chloro-6-(((S)-(1-cyclopropyl-1H-1,2,3-triazol-4-yl)(4-fluorophenyl)methyl-d)amino)-4-(((1R,2R)-2-(hydroxymethyl)cyclohexyl)amino) quinoline-3-carbonitrile] | ≥ 10000 | 605 |  |
| [2H][C@](Nc1cc(Cl)c2ncc(C#N)c(N[C@H]3CCCC[C@@H]3O)c2c1)(c1ccc(F)cc1)c1cn(C2CC2)nn1 [Example 236, 8-chloro-6-(((S)-(1-cyclopropyl-1H-1,2,3-triazol-4-yl)(4-fluorophenyl)methyl-d)amino)-4-(((1S,2S)-2-hydroxycyclohexyl)amino) quinoline-3-carbonitrile] | 6630 | 294 |  |
| [2H][C@](Nc1cc(Cl)c2ncc(C#N)c(NCC[Si](C)(C)C)c2c1)(c1ccc(F)cc1)c1cn(C2CC2)nn1 [Example 237, (S)-8-chloro-6-(((1-cyclopropyl-1H-1,2,3-triazol-4-yl)(4-fluorophenyl)methyl-d)amino)-4-((2-(trimethylsilyl)ethyl)amino) quinoline-3-carbonitrile] |  | 231 | 5120 |
| [2H][C@](Nc1cc(Cl)c2ncc(C#N)c(NC3(C)CC3)c2c1)(c1ccc(F)cc1)c1cn(C2CC2)nn1 [Example 241, (S)-8-chloro-6-(((1-cyclopropyl-1H-1,2,3-triazol-4-yl)(4-fluorophenyl)methyl-d)amino)-4-((1-methylcyclopropyl)amino) quinoline-3-carbonitrile] | 5080 | 951 |  |
| [2H][C@](Nc1cc(Cl)c2ncc(C#N)c(N[C@@H](C)C(C)(C)C)c2c1)(c1ccc(F)cc1)c1cn(C2CC2)nn1 [Example 244, 8-chloro-6-(((S)-(1-cyclopropyl-1H-1,2,3-triazol-4-yl)(4-fluorophenyl)methyl-d)amino)-4-(((S)-3,3-dimethylbutan-2-yl)amino)quinoline-3-carbonitrile] | 5690 | 576 |  |

Continued, in another order:

| EC50 [1, 3] [nM] | IC50 [2] [nM] | Structure (SMILES) | EC50 [1] [nM] |
| --- | --- | --- | --- |
| 1620 | 296 | [2H][C@](Nc1cc(Cl)c2ncc(C#N)c(NC3CC3)c2c1)(c1ccc(F)cc1)c1cn(C2CC2)nn1 [Example 220, (S)-8-chloro-6-(((1-cyclopropyl-1H-1,2,3-triazol-4-yl)(4-fluorophenyl)methyl-d)amino)-4-(cyclopropylamino)quinoline-3-carbonitrile] |  |
| > 10000 | 8200 | [2H][C@](Nc1cc(Cl)c2ncc(C#N)c(NN(CC)c3ccccc3)c2c1)(c1ccc(F)cc1)c1cn(C2CC2)nn1 [Example 222, (S)-8-chloro-6-(((1-cyclopropyl-1H-1,2,3-triazol-4-yl)(4-fluorophenyl)methyl-d)amino)-4-(2-ethyl-2-phenylhydrazinyl)quinoline-3-carbonitrile] |  |
| 157 | 5 | [2H][C@](Nc1cc(Cl)c2ncc(C#N)c(NCC(C)(C)CC)c2c1)(c1ccc(F)cc1)c1cn(C2CC2)nn1 [Example 223, (S)-8-chloro-6-(((1-cyclopropyl-1H-1,2,3-triazol-4-yl)(4-fluorophenyl)methyl-d)amino)-4-((2,2-dimethylbutyl)amino)quinoline-3-carbonitrile] |  |
| 397 | 28 | [2H][C@](Nc1cc(C2CC2)c2ncc(C#N)c(N[C@H](CC)c3ccccc3)c2c1)(c1ccc(F)cc1)c1cn(C2CC2)nn1 [Example 224, 8-cyclopropyl-6-(((S)-(1-cyclopropyl-1H-1,2,3-triazol-4-yl)(4-fluorophenyl)methyl-d)amino)-4-(((R)-1-phenylpropyl)amino)quinoline-3-carbonitrile] |  |
| 426 | 11 | [2H][C@](Nc1cc(Cl)c2ncc(C#N)c(N[C@H](C)c3ccccc3)c2c1)(c1ccc(F)cc1)c1cn(C2CC2)nn1 [Example 227, 8-chloro-6-(((S)-(1-cyclopropyl-1H-1,2,3-triazol-4-yl)(4-fluorophenyl)methyl-d)amino)-4-(((R)-1-phenylethyl)amino) quinoline-3-carbonitrile] |  |
| 5630 | 523 | [2H][C@](Nc1cc(Cl)c2ncc(C#N)c(N[C@H]3CCCC[C@@H]3CO)c2c1)(c1ccc(F)cc1)c1cn(C2CC2)nn1 [Example 234, 8-chloro-6-(((S)-(1-cyclopropyl-1H-1,2,3-triazol-4-yl)(4-fluorophenyl)methyl-d)amino)-4-(((1S,2S)-2-(hydroxymethyl)cyclohexyl)amino) quinoline-3-carbonitrile] |  |
| 162 | 12 | [2H][C@@](Nc1cc(Cl)c2ncc(C#N)c(NCC(C)(C)C)c2c1)(c1cn(C2CC2)nn1)c1ccccc1C(F)F [Example 238, (S)-8-chloro-6-(((1-cyclopropyl-1H-1,2,3-triazol-4-yl)(2-(difluoromethyl)phenyl)methyl-d)amino)-4-(neopentylamino)quinoline-3-carbonitrile] |  |
| 55 | 2 | [2H]C([2H])(Nc1c(C#N)cnc2c(Cl)cc(N[C@@]([2H])(c3cccc(C#N)c3)c3cn(C4CC4)nn3)cc12)C(C)(C)C [Example 239, (S)-8-chloro-6-(((3-cyanophenyl)(1-cyclopropyl-1H-1,2,3-triazol-4-yl)methyl-d)amino)-4-((2,2-dimethylpropyl-1,1-d2)amino)quinoline-3-carbonitrile] |  |
| 71 | 1 | [2H][C@](Nc1cc(C#N)c2ncc(C#N)c(NCC(C)(C)C)c2c1)(c1cccc(C#N)c1)c1cn(C2CC2)nn1 [Example 240, (S)-6-(((3-cyanophenyl)(1-cyclopropyl-1H-1,2,3-triazol-4-yl)methyl-d)amino)-4-(neopentylamino)quinoline-3,8-dicarbonitrile] |  |
| 41 | 2 | [2H][C@](Nc1cc(C#N)c2ncc(C#N)c(N[C@H](CC)c3ccccc3)c2c1)(c1cccc(C#N)c1)c1cn(C2CC2)nn1 [Example 243, 6-(((S)-(3-cyanophenyl)(1-cyclopropyl-1H-1,2,3-triazol-4-yl)methyl-d)amino)-4-(((R)-1-phenylpropyl)amino)quinoline-3,8-dicarbonitrile] |  |
